From US9040261B2, “Compounds as L-cystine crystallization inhibitors and uses thereof” (NEW YORK UNIVERSITY, priority 2009, dated 2015)
“Also recorded” adds a separate entry of the source. Marks after values point to notes of the source that are not given here.

Experiments:
[1] = dosages between 100 mg/L and 20 g/L per day; ATP, reactive oxygen species levels, cell viability; cited from earlier work
[2] = AFM step velocity and hillock imaging with L-cystine diesters under continuous flow
Description: Atomic force microscopy was performed with a Digital Instruments (Santa Barbara, Calif.) Nanoscope Ma Multimode system. All measurements were performed in a cell designed to contain liquids for in situ imaging, including step velocity measurements. All measurements were performed in contact mode using Veeco NP_B Si3N4 tips on silicon nitride cantilevers with a spring constant of 0.12N/m (triangular, 196 μm length, 41 μm width). L-cystine crystals (hexagonal form) were transferred onto an AFM specimen disk coated with partially cured (1 hr) UV-curable optical cement (Type SK-9, EMS Acquisition Corp.) by gently pressing the disk against hexagonal platelets collected by filtration (Whatman Nuclepore membrane, 8 μm). The (001) faces of the hexagonal plates naturally aligned parallel with the specimen disk such that the velocity of the equivalent {100} steps could be measured readily by AFM. The partially cured polymer with the adhered crystals was cured completely by additional UV radiation (2 hrs) prior to analysis. The mounted L-cystine crystals were etched slightly by immersion in deionized water for 30 sec at 60° C. to remove amorphous deposits or impurities that may be present on the surface. Step velocities on the hexagonal L-cystine crystals were measured by AFM using a fluid cell containing an aqueous solution, supersaturated with L-cystine (2 mM), introduced to the cell via a syringe. Step velocities were determined by measuring the distance of the steps from a reference point, usually the dislocation core, in consecutive deflection images acquired at periodic intervals, ranging from 9-14 sec. Measurements were acquired under continuous flow of fresh solution in order to maintain constant supersaturation and additive concentration. […] The step velocities, which correspond to the crystal growth rates, were measured with and without inhibitor for each pair.

[3] = Bulk crystallization of L-cystine in the presence of additives (mass yield); settings: for Yield (%) = (collected mass by filtration, >11 μm)/(total mass added) × 100%: 2 mg/L additive, 0.7 g/L L-cystine (pH 6.8), no additive 80, approximate error ±8%, Dihydrochloride
Description: Alternately, the hexagonal crystals can be obtained by crystallization performed near neutral pH (Sa) The hexagonal form was crystallized from a supersaturated L-cystine solution prepared by adding 70 mg of L-cystine to 100 mL of deionized water (3 mM), and heating under reflux at 100° C. for 20 min with stirring to completely dissolve L-cystine. […] This concentration was used for bulk crystallization studies in the presence of additives so that a measurable amount of bulk crystals could be obtained in a reasonable time. The solution was then allowed to cool slowly with stirring for 75 min. 30 mL aliquots were transferred to separate glass containers, which were then sealed to prevent evaporation and exposure to airborne particulates and stored for 72 hours at room temperature without stirring. […] The crystals retrieved in this manner were used for AFM studies by mounting individual crystals according to the procedure described below.
Various proteins, poly-amino acids, and molecular mimics of L-cystine were examined as additives. The aforementioned procedure for hexagonal platelet crystallization was repeated. Following the 75 min cooling period, prior to any observable crystallization, the additive was added to the supersaturated L-cystine solution to the desired concentration. […] Crystallization without additive was performed in an identical manner for comparison using a control solution from the same batch. The mass yields of L-cystine crystals were obtained by dividing the mass of L-cystine crystals (collected from growth solution by filtration) by the mass of L-cystine added in the growth solution.
Additives chosen for these studies were various proteins, poly-amino acids, and molecular mimics of L-cystine (see Table 1). The above procedure for hexagonal platelet crystallization was repeated until completion of the 75 min cooling period, at which point 29.5 g of solution was transferred to a 100 mL beaker containing 0.5 g of separately prepared additive solution to yield net concentrations of 2 mg/L additive and 0.7 g/L L-cystine. Additive solutions were replaced with deionized water of equivalent volume for control measurements. […]
L-cystine bulk crystallization was investigated in the presence of various polymers, urinary constituents, fish antifreeze proteins (AFPs), and L-cystine derivatives (i.e. structural mimics of L-cystine), which were analyzed as possible growth inhibitors of hexagonal L-cystine. The potency of each additive was assessed by comparing the difference in crystal yield (Table 1), which is equal to the mass of crystals formed in the presence of 2 mg/L additive (isolated with […]) divided by the total mass of L-cystine (700 mg/L).

[4] = Crystal size and habit by optical microscopy and SEM after bulk crystallization with additive
Description: Various proteins, poly-amino acids, and molecular mimics of L-cystine were examined as additives. The aforementioned procedure for hexagonal platelet crystallization was repeated. Following the 75 min cooling period, prior to any observable crystallization, the additive was added to the supersaturated L-cystine solution to the desired concentration. The container was sealed and stored for 72 hours at room temperature without stirring, after which the precipitate was collected by vacuum filtration (Whatman Grade 1 filters, >11 μm pores) and were air dried prior to analysis. Crystallization without additive was performed in an identical manner for comparison using a control solution from the same batch. The mass yields of L-cystine crystals were obtained by dividing the mass of L-cystine crystals (collected from growth solution by filtration) by the mass of L-cystine added in the growth solution. The crystals were isolated with 11 μm-pore filters, which were regarded as sufficiently small for reliable capture of the crystals (optical micrographs reveal that the size of crystals was always greater than 50 μm
An Orion 3 Star pH meter (Thermo Electron Corp.) with Orion 9157BNMD probe was used to measure the pH of L-cystine solutions. Crystal morphology was measured with a Leitz ERGOLUZ optical microscope and a Hitachi 3500 scanning electron microscopy. A thin coating of gold (2 nm) was sputtered on SEM samples and images were acquired at low voltage (2-5 kV) to minimize sample melting. ^1H NMR spectra were recorded using a Bruker AVANCE 400 spectrometer and were routinely run using broadband decoupling. Chemical shifts (δ), expressed in ppm, are referenced to the corresponding residual nuclei in deuterated solvent (D2O). Powder X-ray diffraction (XRD) patterns of isolated crystals were acquired with a Panalytical XPert PRO MPD using a Bragg-Brentano geometry with fixed slits at power settings of 45 kV and 40 mA. A CuKa radiation (0.154 nm) source was used with a 1 degree fixed divergence slit (10 mm beam mask) for incident X-rays and a 1 degree anti-scatter slit Ni filter ( 1/16 degree receiving slit) for diffracted X-rays.

In the case of `COC(=O)[C@@H](N)CSSC[C@H](N)C(=O)OC.Cl.Cl` [CDME, Cystine Dimethyl Ester Dihydrochloride], the “toxicity in cell culture and in vivo animal studies” value [1] is given as “possible adverse affects”, the “order of step roughening, corresponding to the trend in inhibition” value ([2]; 0.015 mM inhibitor, 2 mM L-cystine) is given as “L-CDME>L-CDEE>L-CDIE>L-CDTE” and the “inhibition of step velocity compared among four L-cystine diesters” value ([2]; 0.015 M inhibitor) is given as “best inhibitor”. The “CDME concentration sufficient to inhibit in vitro L-cystine crystallization” value ([3]; 2 mM L-cystine) was roughly 25 mg/L, the “Yield (%) = (collected mass by filtration, >11 μm)/(total mass added) × 100%” value [3] was 13% and the “Yield (%) = (collected mass by filtration, >11 μm)/(total mass added) × 100%” value ([3]; listed as L-cystine dimethyl ester) was 13* %. For the same compound, the “CDME amount sufficient to suppress crystallization” value ([3]; 25 mg/L CDME in supersaturated L-cystine, 8 μm filter pores) was 3 wt %, the “mass yield of needles less than the yield of platelets in the absence of additive” value ([3]; CDME concentration approaching 5 mg/L) was “more than 70%” and the “CDME dosage that may be sufficient to inhibit in vivo L-cystine crystallization” value ([3]; extrapolated from 2 mM to physiological urine L-cystine (~0.4 mM)) was “less than 4 mg/L”. The “needle volume less than hexagonal platelets” value [4] was roughly 100 times, the “size of hexagonal platelets” value ([4]; 1.7 mg/L CDME, 700 mg/L L-cystine, without additive 200-400 μm) was 50-100 μm and the “number of needles collected” value ([4]; 25 mg/L (3 wt %) CDME, Dihydrochloride) was “negligible; also recorded: Trace number of needles”.
